The results in this text go back to US20240174680A1, “CDK2 INHIBITORS AND METHODS OF USING THE SAME” (Cedilla Therapeutics, Inc., priority 2021, published 2024).

Bounds are passed on as bounds.

The assay addresses CDK2/Cyclin E1 (Homo sapiens, UniProt P24941). Nature of the assay: CDK2/Cyclin E1 Caliper LabChip EZ Reader mobility shift assay. In kind it is biochemical. Also on record: purchased Eurofins 14-475. The settings on record: read-out: Caliper Assay (CDK2/CCNE1): IC50. In outline:
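Mobility-shift kinase assay: compound titrations preincubated 30 min with enzyme and ATP, reaction started with 5-FAM-QSPKKG-CONH2 peptide. Final 2.5 nM CDK2/Cyclin E1, 100 μM ATP, 1.5 μM peptide, HEPES pH 7.5; stopped with EDTA after 100 min. IC50 from four-parameter fit of normalized conversion ratio.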
As for `CNC(=O)[C@@H](NC(=O)[C@H]1CN(C(=O)c2cncs2)CC12CN(C(=O)CC1CC1)C2)[C@@H](C)OCC1CCCCC1` [I-103B], the IC50 was above 10 µM.
The figure for `CNC(=O)[C@@H](NC(=O)C1CN(C(=O)c2cnn(Cc3ccccc3)c2)CC12CN(C(=O)[C@H]1CC1(C)C)C2)[C@@H](C)OCc1ccccn1` (some centres unmarked) [I-257] is 1 to 10 µM.
The figure for `C[C@@H](OCC1CCCCC1)[C@H](NC(=O)[C@@H]1CN(C(=O)c2ccns2)CC12CN(C(=O)[C@H]1CC1(C)C)C2)C(=O)N1CCCCC1` [I-217] is at most 0.01 µM; for `COC(=O)[C@@H](NC(=O)[C@@H]1CN(C(=O)c2cnn(Cc3ccccc3)c2)CC12CN(C(=O)[C@H]1CC1(C)C)C2)[C@@H](C)OCC1CCCCC1` [I-475] it is at most 0.01 µM; for `COC[C@H]1CCCN(C(=O)[C@@H](NC(=O)[C@@H]2CN(C(=O)c3cnn(Cc4ccccc4)c3)CC23CN(C(=O)[C@H]2CC2(C)C)C3)[C@@H](C)OC)C1` [I-283] it is 1 to 10 µM.
In the case of `CNC(=O)C(NC(=O)[C@@H]1CN(C(=O)c2cncs2)CC12CN(C(=O)[C@H]1CC1(C)C)C2)c1cccc(C2CCCCC2)n1` (some centres unmarked) [I-362], the IC50 was in the range of 0.01 to 0.1 µM.
As for `C[C@@H]1C[C@H](C)CN(C(=O)[C@@H](NC(=O)C2CN(C(=O)c3cncs3)CC23CN(C(=O)[C@H]2CC2(C)C)C3)[C@@H](C)OCC2CCCCC2)C1` (some centres unmarked) [I-172], the figure is at most 0.01 µM.
For the compound `CNC(=O)[C@H](CO)NC(=O)C1CN(C(=O)c2cnn(Cc3ccccc3)c2)CC12CN(C(=O)[C@H]1CC1(C)C)C2` (some centres unmarked) [I-260], the IC50 is above 10 µM.
On to `CC1(C)C[C@@H]1C(=O)N1CC2(CN(C(=O)c3cnn(Cc4ccccc4)c3)C[C@H]2C(=O)Nc2cccc(-c3ccccc3)c2)C1` [I-63A], for which the IC50 is 1 to 10 µM.
The figure for `CNC(=O)[C@@H](CO)NC(=O)C1CN(C(=O)c2cnn(Cc3ccccc3)c2)CC12CN(C(=O)[C@H]1CC1(C)C)C2` (some centres unmarked) [I-261] is above 10 µM; for `COC[C@H]1CCCN(C(=O)[C@@H](NC(=O)[C@@H]2CN(C(=O)c3cncs3)CC23CN(C(=O)[C@H]2CC2(C)C)C3)[C@@H](C)OC(C)C2CCCCC2)C1` (some centres unmarked) [I-374] it is at most 0.01 µM.
For `CNC(=O)[C@@H](NC(=O)[C@@H]1CN(C(=O)c2cnn(Cc3ccccc3)c2)CC12CN(C(=O)[C@H]1CC1(C)C)C2)[C@@H](C)OCC(C)C` [I-137A], the IC50 is 0.1 to 1 µM.
Take `CNC(=O)[C@@H](NC(=O)[C@@H]1CN(C(=O)c2cnc(C(F)(F)F)s2)CC12CN(C(=O)[C@H]1CC1(C)C)C2)[C@@H](C)OCC1CCCCC1` [I-161A]: the IC50 is above 10 µM.
As for `CNC(=O)[C@@H](NC(=O)[C@@H]1CN(C(=O)c2cnn(Cc3ccccc3)c2)CC12CN(C(=O)Cc1ccccc1)C2)[C@@H](C)OCc1ccccc1` [I-25A, (S)-6-(1-benzyl-1H-pyrazole-4-carbonyl)-N-((2S,3R)-3-(benzyloxy)-1-(methylamino)-1-oxobutan-2-yl)-2-(2-phenylacetyl)-2,6-diazaspiro[3.4]octane-8-carboxamide], the figure is above 10 µM; as for `CNC(=O)[C@@H](NC(=O)[C@@H]1CN(C(=O)c2cnn(Cc3ccccc3)c2)CC12CN(C(=O)C1(c3ccc(C(C)(C)C)cc3)CC1)C2)[C@@H](C)OCc1ccccc1` [I-80A], above 10 µM.
As for `CNC(=O)[C@@H](NC(=O)[C@@H]1CN(C(=O)c2cncs2)CC12CN(Cc1ccn[nH]1)C2)[C@@H](C)OCC12CCC(CC1)OC2` [I-351], the figure is above 10 µM.
As for `C[C@@H](NC(=O)[C@@H]1CN(C(=O)c2cnn(Cc3ccccc3)c2)CC12CN(C(=O)[C@H]1CC1(C)C)C2)c1cccc(F)c1` [I-128A], the figure is above 10 µM; as for `COC1CCN(C(=O)[C@@H](NC(=O)[C@@H]2CN(C(=O)c3cncs3)CC23CN(C(=O)[C@H]2CC2(C)C)C3)[C@@H](C)OCC2CCC(F)(F)CC2)CC1` [I-385], at most 0.01 µM.
With `CNC(=O)[C@@H](NC(=O)[C@@H]1CN(C(=O)c2cnn(Cc3ccccc3)c2)CC12CN(C(=O)[C@H]1CC1(C)C)C2)[C@@H](C)OCc1ccncc1` [I-244], the IC50 was 1 to 10 µM.
As to `CC1(C)C[C@@H]1C(=O)N1CC2(CN(C(=O)c3cnn(Cc4ccccc4)c3)C[C@H]2C(=O)N[C@@H]2CCCN(C(=O)C3CCCCC3)C2)C1` [I-215], the IC50 lay within 1 to 10 µM.
As for `CNC(=O)[C@@H](NC(=O)[C@@H]1CN(C(=O)c2cnn(Cc3ccccc3)c2)CC12CN(C(=O)[C@H]1CC1(C)C)C2)[C@@H](C)OCC1CCC(F)(F)CC1` [I-202], the figure is at most 0.01 µM.
As for `CNC(=O)[C@H](CCCC1CCCCC1)NC(=O)[C@H]1CN(C(=O)c2cnn(Cc3ccccc3)c2)CC12CN(C(=O)[C@H]1CC1(C)C)C2` [I-155B], the figure is 1 to 10 µM.
As for `CNC(=O)[C@@H](NC(=O)[C@@H]1CN(C(=O)c2cnn(Cc3ccccc3)c2)CC12CN(C(=O)N(C)C1CC1)C2)[C@@H](C)OCC1CCCCC1` [I-295], the figure is 0.1 to 1 µM; as for `CNC(=O)[C@@H](NC(=O)[C@H]1CN(C(=O)c2cnn(Cc3ccccc3)c2)CC12CN(C(=O)C(C)(C)C#N)C2)[C@@H](C)OCc1ccccc1` [I-76B], above 10 µM.
`CNC(=O)[C@@H](NC(=O)[C@@H]1CN(C(=O)c2cnn(Cc3ccccc3)c2)CC12CN(C(=O)CC(C)C)C2)[C@@H](C)OCc1ccccc1` [I-69A]: the IC50 lay in the range of 0.1 to 1 µM.
As for `CC1(C)C[C@@H]1C(=O)N1CC2(CN(C(=O)c3cnn(Cc4ccccc4)c3)C[C@H]2C(=O)N[C@H]2CCN(c3ccccc3)C2)C1` [I-206], the figure is 0.1 to 1 µM; as for `COC[C@H]1CCCN(C(=O)[C@@H](C)NC(=O)[C@@H]2CN(C(=O)c3cncs3)CC23CN(C(=O)[C@H]2CC2(C)C)C3)C1` [I-324], 1 to 10 µM; as for `CNC(=O)[C@@H](NC(=O)[C@@H]1CN(C(=O)c2cnn(Cc3ccccc3)c2)CC12CN(CC(=O)O)C2)[C@@H](C)OCC1CCCCC1` [I-294, 2-((S)-6-(1-benzyl-1H-pyrazole-4-carbonyl)-8-(((2S,3R)-3-(cyclohexylmethoxy)-1-(methylamino)-1-oxobutan-2-yl)carbamoyl)-2,6-diazaspiro[3.4]octan-2-yl)acetic acid], above 10 µM.
The figure for `CO[C@H]1COCC[C@@H]1NC(=O)[C@@H]1CN(C(=O)c2cnn(Cc3ccccc3)c2)CC12CN(C(=O)[C@H]1CC1(C)C)C2` [I-148A] is above 10 µM; for `CNC(=O)[C@@H](NC(=O)[C@@H]1CN(C(=O)c2sc(Cl)nc2C)CC12CN(C(=O)[C@H]1CC1(C)C)C2)[C@@H](C)OCC1CCCCC1` [I-208A] it is 0.01 to 0.1 µM; for `CC1(C)C[C@@H]1C(=O)N1CC2(CN(C(=O)c3cnn(Cc4ccccc4)c3)C[C@H]2C(=O)N[C@@H]2CCN(C3CC3)C2=O)C1` [I-259] it is above 10 µM.
As for `CNC(=O)[C@@H](NC(=O)[C@@H]1CN(C(=O)c2cnn(Cc3ccccc3)c2)CC12CN(C(=O)C(C)C1CC1)C2)[C@@H](C)OCc1ccccc1` (some centres unmarked) [I-277], the IC50 is 1 to 10 µM.
As to `C[C@@H](OCC1CCCCC1)[C@H](NC(=O)[C@@H]1CN(C(=O)c2cnn(Cc3ccccc3)c2)CC12CN(C(=O)[C@H]1CC1(C)C)C2)C(=O)N1CCC(c2cc[nH]n2)CC1` [I-443], the IC50 is at most 0.01 µM.
On to `CC1(C)C[C@@H]1C(=O)N1CC2(CN(C(=O)c3cnn(Cc4ccccc4)c3)C[C@@H]2C(=O)NC2CCN(C(=O)c3ccccc3)CC2)C1` [I-61B], for which the IC50 is above 10 µM.
As for `C[C@@H](OCC1CCCCC1)[C@@H](COC1CCOCC1)NC(=O)[C@@H]1CN(C(=O)c2cncs2)CC12CN(C(=O)[C@H]1CC1(C)C)C2` [I-331], the figure is at most 0.01 µM; as for `C[C@@H](OCC1CCCCC1)[C@H](NC(=O)[C@@H]1CN(C(=O)c2cnn(Cc3ccccc3)c2)CC12CN(C(=O)[C@H]1CC1(C)C)C2)C(=O)N1CCC(c2cnc[nH]2)CC1` [I-438], at most 0.01 µM.
On to `CCOC(=O)C(C)(C)CNC(=O)[C@@H](NC(=O)[C@@H]1CN(C(=O)c2cnn(Cc3ccccc3)c2)CC12CN(C(=O)[C@H]1CC1(C)C)C2)[C@@H](C)OCC1CCCCC1` [I-473], for which the IC50 is at most 0.01 µM.
The figure for `C[C@H](NC(=O)[C@H]1CN(C(=O)c2cnn(Cc3ccccc3)c2)CC12CN(C(=O)[C@H]1CC1(C)C)C2)c1cccc(F)c1` [I-127B] is above 10 µM.
Take `CNC(=O)[C@H](CCCC1CCCCC1)NC(=O)[C@@H]1CN(C(=O)c2cnn(Cc3ccccc3)c2)CC12CN(C(=O)[C@H]1CC1(C)C)C2` [I-155A]: the IC50 was in the range of 0.1 to 1 µM.
As for `CNC(=O)[C@@H](NC(=O)[C@@H]1CN(C(=O)Nc2cnn(Cc3ccccc3)c2)CC12CN(C(=O)[C@H]1CC1(C)C)C2)[C@@H](C)OCc1ccccc1` [I-48A, (S)—N6-(1-benzyl-1H-pyrazol-4-yl)-N8-((2S,3R)-3-(benzyloxy)-1-(methylamino)-1-oxobutan-2-yl)-2-((S)-2,2-dimethylcyclopropane-1-carbonyl)-2,6-diazaspiro[3.4]octane-6,8-dicarboxamide], the figure is above 10 µM; as for `CNC(=O)[C@@H](NC(=O)[C@@H]1CN(C(=O)c2cnn(Cc3ccccc3)c2)CC12CN(C(=O)[C@H]1CC1(C)C)C2)[C@@H](C)OCc1ccccc1O` [I-251], 0.1 to 1 µM.
As for `CNC(=O)[C@@H](NC(=O)[C@@H]1CN(C(=O)c2scnc2C(C)(C)C)CC12CN(C(=O)[C@H]1CC1(C)C)C2)[C@@H](C)OCC1CCCCC1` [I-231A], the figure is 1 to 10 µM.
Regarding `CNC(=O)[C@@H](NC(=O)[C@@H]1CN(C(=O)c2cnn(Cc3ccccc3)c2)CC12CN(C(=O)[C@H]1CC1(C)C)C2)[C@@H](C)OCCC1CCCCC1` [I-125A], the IC50 is at most 0.01 µM.
As for `C[C@@H](OCC1CCCCC1)[C@H](NC(=O)[C@@H]1CN(C(=O)c2cnn(CC(F)(F)F)c2)CC12CN(C(=O)[C@H]1CC1(C)C)C2)C(=O)N1CCCCC1` [I-132], the figure is 0.01 to 0.1 µM.
The figure for `CC1(C)C[C@@H]1C(=O)N1CC2(CN(C(=O)c3cnn(Cc4ccccc4)c3)C[C@H]2C(=O)N2CCO[C@H](Cc3ccccc3)C2)C1` [I-255] is above 10 µM; for `CC1(C)C[C@@H]1C(=O)N1CC2(CN(C(=O)c3cncs3)C[C@H]2C(=O)NC(c2cccc(C3CCCCC3)n2)C2COCCO2)C1` (some centres unmarked) [I-496] it is 0.01 to 0.1 µM.
As for `CC1(C)C[C@@H]1C(=O)N1CC2(CN(C(=O)c3cnn(Cc4ccccc4)c3)C[C@H]2C(=O)Nc2ccc(-c3ccccc3)cc2)C1` [I-81A], the figure is 0.1 to 1 µM.
